In patent publication US6369260B1, “Process for the preparation of a pharmacologically active chemical combination” (Laboratori Alchemica S.r.l., priority 1994, dated 2002):
Where two headings read alike, the source gives them in different places.

What was measured:
[1] = plasmatic concentration after oral administration in the rats; settings: for native products found in plasma: since the first hours of administration; for time of plasmatic elimination half-life versus native compounds: sometimes even by 300% higher
[2] = test system: rat; type: in vivo
Description: The gastrointestinal tolerability was evaluated by oral administration in the rat.

[3] = rat, in vivo, po
[4] = test system: Mycobacterium butyricum induced paw volume increase; experiment: anti-arthritic activity, standard adjuvant arthritis method; type: in vivo; settings: intraperitoneal, rat
Description: The anti-arthritic activity of (CCCCV) was determined in the rat, according to the standard adjuvant arthritis method, consisting in the injection of a suspension killed Mycobacterium butyricum in mineral oil in the right hind paw under light ether anesthesia. The volume of the left hindpaw was measured by plethysmography.

[5] = gastrointestinal tolerability following intraperitoneal administration; type: in vivo
From the text: In addition, the gastrointestinal tolerability was examined in (CCCCV), as compared to the native agent.

[6] = test system: collagen-stimulated platelets; experiment: platelet anti-aggregating activity in vivo; settings: power ratio related to the basic product taken as unit standard; oral administration
Description: The platelet anti-aggregating activity was evaluated in vivo on the collagen-stimulated platelets, according to the method described by PINON, J.Pharmacol.Methods 12,79 (1984); the gastrointestinal tolerability was evaluated by oral administration in the rat.
The results are shown in Table 2, which summarizes the study of the antithrombotic properties of said products (III), (XIII) (XVII) and (XVIII) after their oral administration.

[7] = test system: carrageen edema; experiment: anti-inflammatory activity, carrageen edema method; type: in vivo; settings: power ratio related to the basic product taken as unit standard; oral administration, rat
Description: The anti-inflammatory activity was determined according to the method of carrageen edema, as described by WINTER et al. Proc.Soc.Exp.Biol.Med. 111,544 (1962), in the rat.
The results are shown in Table 1, which summarizes the study of the anti-inflammatory properties of the compounds under examination after oral administration.

[8] = Table 1, power ratio related to the basic product taken as unit standard, oral administration
[9] = Table 2, relative to Aspirin = 1, oral administration

CC(C(=O)OCCCCOC(=O)C(C)c1ccc(-c2ccccc2)c(F)c1)c1ccc(-c2ccccc2)c(F)c1 (centres unmarked) [(IX)]
native products found in plasma [1]: significant quantities of the native products were found | time of plasmatic elimination half-life versus native compounds [1]: significantly higher | GASTROINT. TOLERABILITY [2, 8]: 0.3

C[C@]12CCC(=O)C=C1CC[C@@H]1[C@@H]2[C@@H](O)C[C@@]2(C)[C@H]1CC[C@]2(O)C(=O)COC(=O)CCCCCCCC(=O)OCC(=O)[C@]1(O)CC[C@@H]2[C@H]3CCC4=CC(=O)CC[C@@]4(C)[C@@H]3[C@H](O)C[C@]21C [(CCCCV), di(21-hydrocortisone)azelate]
time of plasmatic elimination half-life versus native compounds [3]: significantly higher | native products found in plasma [1]: significant quantities of the native products were found | anti-arthritic potency relative to parent compound [4]: comparable with the parent compound | duration of pharmacological activity relative to parent compound [4]: greater duration | inhibition of Mycobacterium butyricum induced paw volume increase ([4]; suspended in carboxymethylcellulose 0.5-2%): effective in inhibiting significantly | gastrointestinal tolerability compared to the native agent [5]: significantly better tolerated than the parent compound

CS(=O)(=O)Nc1ccc([N+](=O)[O-])cc1Oc1ccccc1 [Nimesulide, reference compound]
GASTROINT. TOLERABILITY [2, 8]: 1

COc1ccc2cc([C@H](C)C(=O)O)ccc2c1 [Naproxen, reference compound]
GASTROINT. TOLERABILITY ([2]; in vivo, po): 1

CC(C(=O)O)c1ccc(-c2ccccc2)c(F)c1 (centres unmarked) [Flurbiprofen, reference compound]
GASTROINT. TOLERABILITY ([2]; in vivo, po): 1

CC(=O)Oc1ccccc1C(=O)OCCCCCCOC(=O)c1ccccc1OC(C)=O [(III), 1.6-hexandiol bis-acetylsalicylate]
GASTROINT. TOLERABIL. [2, 9]: 0.1 | PLATELET ANTI-AGGREGATING ACTIVITY [6]: 0.8

CC(C(=O)OCCCCOC(=O)C(C)c1cccc(C(=O)c2ccccc2)c1)c1cccc(C(=O)c2ccccc2)c1 (centres unmarked) [(VII), 1,4-butandiole bis-2-[(3-benzoyl)phenyl]propionate]
ANTIEDEMIGENIC ACTIVITY [7]: 0.9 | GASTROINT. TOLERABILITY [2, 8]: 0.3

O=C(O)Cc1ccccc1Nc1c(Cl)cccc1Cl [Diclofenac, reference compound]
GASTROINT. TOLERABILITY [2, 8]: 1

O=C(Cc1ccccc1Nc1c(Cl)cccc1Cl)OCCCCOC(=O)Cc1ccccc1Nc1c(Cl)cccc1Cl [(X)]
GASTROINT. TOLERABILITY [2, 8]: 0.1

CC(C(=O)O)c1cccc(C(=O)c2ccccc2)c1 (centres unmarked) [Ketoprofen, reference compound]
GASTROINT. TOLERABILITY [2, 8]: 1

CC(=O)Oc1ccccc1C(=O)OCCCCOC(=O)c1ccccc1OC(C)=O [(XIII), 1,4-buthanediol bis-acetylsalycylate]
GASTROINT. TOLERABIL. [2, 9]: 0.1 | PLATELET ANTI-AGGREGATING ACTIVITY [6]: 0.8

CS(=O)(=O)N(C(=O)CCC(=O)N(c1ccc([N+](=O)[O-])cc1Oc1ccccc1)S(C)(=O)=O)c1ccc([N+](=O)[O-])cc1Oc1ccccc1 [(XI), bis-(N-[(2-phenoxy-4-nitro)phenyl]-N′-methansulfonyl)succinamide]
native products found in plasma [1]: significant quantities of the native products were found | time of plasmatic elimination half-life versus native compounds [1]: significantly higher | GASTROINT. TOLERABILITY [2, 8]: 0.8

CC(=O)Oc1ccccc1C(=O)O [Aspirin, reference compound]
GASTROINT. TOLERABIL. ([2]; in vivo, po): 1 | PLATELET ANTI-AGGREGATING ACTIVITY [6]: 1
